Measured values from patent US12616753B2, “HSP70 inhibitors and methods of using same” (THE WISTAR INSTITUTE, priority 2020, dated 2026).

How the values were obtained:
[1] = test system: CRC cell lines (SW620, HT-29, HCT 116+/−p53, RKO, and LS411N); assay: Alamar Blue cell viability assay, human CRC panel; type: cell-based; conditions: Homo sapiens; 72 hours; read-out: IC50, cytotoxicity in all CRC cell lines
Protocol: FIGS. 4A-4F show AP-4-139B is efficacious as a single agent against human CRC in vitro and in vivo. FIG. 4A: Three CRC cell lines (HT-29, LS411N, and SW620) were treated with 10 μM of PET-16 or AP-4-139B for 48 hours. Cell were then subjected to viability assays using Trypan Blue exclusion. *** p<0.001. […] FIGS. 4B-4C: A panel of six CRC cell lines (SW620, HT-29, HCT 116+/−p53, RKO, and LS411N) were plated at a density of 1,000 cells per well in 96-well plates. The next day, cells were treated with the indicated inhibitors for 72 hours. Cells were then subjected to the Alamar Blue cell viability assays. Shown are representative IC50 values of an average of six technical replicates and two biological replicates. FIG. 4D: 2.5×10^6 HT-29 cells were injected subcutaneously into the right flank of NSG mice. Once tumors reached an approximate volume of 100 mm^3, mice were separated randomly into two groups: control vs. AP-4-139B. Mice were treated with 12.5 mg/kg AP-4-139B three times a week. All mice were euthanized 22 days after the start of treatment. Tumor volumes were recorded using digital calipers and using the formula v=length×width^2×0.52. *** p<0.001. n=10 mice per group. FIG. 4E: Immunohistochemistry (IHC) analysis of HT-29 xenograft tumors treated with AP-4-139B. Shown are representative images (4-6 random fields of view per condition) of Ki67 (proliferation) and Cleaved Lamin A (cell death). n=4 mice per group. Scale bar=100 μm. Respective IgG antibody was used as the negative control.

Pharmacokinetics in mice = type: in vivo; conditions: 10 mg/kg
Description: FIGS. 8A-8E show HSP70 inhibition is effective on mouse CRC cell lines. FIG. 8A: Association of HSPA1A gene expression and survival rate of patients with colorectal adenocarcinoma (COAD). Patient data was gathered from USCS Xena platform (GDC-TCGA COAD; n=435). Log-rank test was used to determine significance. p=0.0004. FIG. 8B: Association of HSPA1A gene expression and stage of COAD (n=440). Wilcoxon rank sum test was used to determine significance. * p<0.05, *** p<0.001. FIG. 8C: Body weights of mice injected with HT-29 tumor xenografts. Weights were measured at the start of the treatment to determine mouse toxicity. n.s. not significant, n=10 mice per group. FIG. 8D: H&E staining of livers and colons of mice injected with HT-29 tumor xenografts. Tissues were collected at the end of the study. FIG. 8E. Pharmacokinetic values of AP-4-139B in the liver, plasma, and brain from three CDI mice treated with 10 mg/kg of compound.

mutant p53 and MRPS14 = assay: Western blot in mouse CRC cell lines; type: cell-based; conditions: 10 μM, 24 or 48 hours
Protocol: FIGS. 5A-5F show AP-4-139B is efficacious against CRC in an immunocompetent model, and causes immune cell recruitment. FIGS. 5A-5B: Mouse CRC cell lines, MC38 (FIG. 5A) and CT26 (FIG. 5B), were plated at a density of 1,000 cells per well in 96-well plates. The next day, cells were treated with the indicated inhibitors for 72 hours. Cells were then subjected to the Alamar Blue cell viability assays. Shown are representative IC50 values of an average of six technical replicates and two biological replicates. FIG. 5C: Mouse CRC cell lines MC38 and CT26 were treated with 10 μM AP-4-139B for 24 or 48 hours and immunoblotted for HSP70, p53, AKT, Cleaved Lamin A (CLA), Cleaved Caspase 3, MRPS14, and GAPDH (loading control). The doublet detected for HSP70 is seen in other murine cell lines, and may represent a degradation product or post-translational modification. FIG. 5D: 1×10^6 MC38 cells were injected subcutaneously into the right flank of 6-8 week old male C57Bl/6 mice. Once tumors reached an approximate volume of 50 mm^3, mice were separated randomly into two groups: vehicle vs. AP-4-139B. Mice were treated with 10 mg/kg AP-4-139B every 48 hours. All mice were euthanized 20 days after the start of treatment. Tumor volumes were recorded using digital calipers and using the formula v=length×width^2×0.52. *** p<0.001. n=15 mice per group.

MC38 cells = assay: Membrane associated calreticulin analysis by flow cytometry; type: cell-based, mouse; conditions: 24 hours
Protocol: FIG. 6D: MC38 cells were treated with 5 μM AP-4-139B for 24 hours and subjected to flow cytometry, using Alexa488-tagged calreticulin antibody. *** p<0.001, n=4 biological replicates performed in duplicate. FIG. 6E: MC38 cells were treated with increasing concentrations of AP-4-139B, G-TPP, 17-AAG or Metformin for 3 hours and then assayed for extracellular ATP release. Three independent cultures were assayed for each treatment, and DMSO-treated cells were used as internal controls. Error bars represent standard deviation (SD).
Flow cytometry was used to detect calreticulin localization after exposure to Doxorubicin (positive control) or AP-4-139B. MC38 cells were plated at a density of 3×10^5 cells per well in 6-well plates. The following day, cells were treated with 1 μM of doxorubicin, 15 μM of AP-4-139B (MC38), or 5 μM of AP-4-139B (CT26). After 24 hours, cells were collected and stained with anti-CRT antibody (ab196158) (Abcam) diluted in a solution of 1% FBS in PBS for 30 minutes on ice in the dark. Cells were then washed with PBS and stained with DAPI (1 μg/mL) for 5 minutes prior to analysis. Samples were analyzed using a FACSCelesta (Becton Dickinson) flow cytometer. […] Fluorescent intensity of DAPI negative cells was measured and at least 10,000 events in the analysis gate were obtained.

Structure (SMILES): c1ccc(-c2cn3nc(CCCCCC[P+](c4ccccc4)(c4ccccc4)c4ccccc4)sc3n2)cc1 [AP-4-139B, Triphenyl(6-(6-phenylimidazo[2,1-b][1,3,4]thiadiazol-2-yl)hexyl)phosphonium bromide]
- IC50 [1]: 1500 to 3000 nM
- brain penetrance (Pharmacokinetics in mice): modest brain penetrance
- half-life in plasma (Pharmacokinetics in mice): > five
- half-life (Pharmacokinetics in mice; CDI, mouse, plasma): > 5 h
- levels of mutant p53 and MRPS14 in MC38 cells (mutant p53 and MRPS14): decreased levels
- calreticulin mobilization to the plasma membrane (MC38 cells): calreticulin mobilization to the plasma membrane
